These are literature values, as cited in patent publication US20050187170A1, “Enhancing the efficiency of RNA polymerase inhibitors by using inosine monophosphate dehydrogenase inhibitors” (BIOCRYST PHARMACEUTICALS, INC., priority 2003, published 2005).

The target of one series is human IMPDH type I (Homo sapiens, UniProt P20839). The note with it: read-out: Ki, IMPDH type I; type I expressed in normal cells; Carr, et al.
The test system of the next series is HIV. The note with it: human peripheral blood CD4+ lymphocytes and macrophages, established human cell lines.

Chain of human IMPDH type I (P20839 whole entry): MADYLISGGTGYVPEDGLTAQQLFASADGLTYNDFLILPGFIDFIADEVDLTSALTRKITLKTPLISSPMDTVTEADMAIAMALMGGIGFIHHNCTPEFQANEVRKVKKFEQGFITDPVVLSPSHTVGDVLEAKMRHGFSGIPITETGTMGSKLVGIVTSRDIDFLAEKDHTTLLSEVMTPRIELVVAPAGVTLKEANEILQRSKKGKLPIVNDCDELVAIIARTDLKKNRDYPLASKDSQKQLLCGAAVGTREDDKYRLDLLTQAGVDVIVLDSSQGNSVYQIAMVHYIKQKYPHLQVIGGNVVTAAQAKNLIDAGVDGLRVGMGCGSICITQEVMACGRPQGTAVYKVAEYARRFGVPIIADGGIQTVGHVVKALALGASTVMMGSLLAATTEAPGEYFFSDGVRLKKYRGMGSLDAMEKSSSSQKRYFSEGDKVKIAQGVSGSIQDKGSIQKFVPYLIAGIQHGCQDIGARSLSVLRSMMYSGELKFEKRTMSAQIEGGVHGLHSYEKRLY

The Ki is the dissociation constant of the complex between target and ligand, obtained from inhibition or displacement. For `COc1c(C)c2c(c(O)c1C/C=C(\C)CCC(=O)O)C(=O)OC2` [MPA, Mycophenolic acid], the inhibitory constant (Ki) on human IMPDH type I was 0.033 to 0.037 µM. Besides, in the series with HIV, the “anti-HIV activity in vitro” value is reported as “strong anti-HIV activity”.
